This is an account of results in patent US6620828B2, “Thiazole compounds and pharmaceutical compositions for inhibiting protein kinases and methods for their use” (Agouron Pharmaceuticals, Inc., priority 1999, dated 2003).

Where two headings read alike, the source gives them in different places.

This assay deals with human umbilical vein endothelial cells (HUVEC). Nature of the assay: HUVEC proliferation assay. Type of assay: cell-based. The settings on record: for inhibition at 0.15 µM / inhibition at 0.001 µM / inhibition at 0.01 µM / inhibition at 0.05 µM: Homo sapiens, HUVEC; for inhibition at 0.15 µM / % inhibition @ 150 nM: Table I screening results, 150 nM; for inhibition at 0.001 µM: 1 nM; for inhibition at 0.01 µM: 10 nM; for inhibition at 0.05 µM: 50 nM. The method in brief:
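Readout was MTT dye reduction (A595) after 72 h of stimulation with VEGF at 6 ng/ml final. Compound, in 0.1% DMSO final, was added 1 h before VEGF to HUVEC starved 24 h in 1% FBS. % inhibition was scaled between VEGF-alone and unstimulated wells; IC50 was fitted from triplicate dose curves.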

[1] abbreviates: crude combinatorial amide library.
Where [2] appears, read: table following Table II (untitled), crude combinatorial library.
Setting [3] is: table following Table II (untitled), crude combinatorial library, read-out: % inhibition @ 10 nM.
The mark [4] stands for this setting: Inhibition of HUVEC Proliferation, crude combinatorial urea library, read-out: % inhibition @ 50 nM.
The mark [5] stands for this setting: Inhibition of HUVEC Proliferation, crude combinatorial urea library, read-out: Inhibition @ 50 nM.
Where [6] appears, read: crude combinatorial urea library, read-out: Inhibition of HUVEC Proliferation % inhibition @ 10 nM.
Setting [7] is: crude combinatorial urea library, read-out: Inhibition of HUVEC Proliferation % inhibition @ 50 nM.
Setting [8] is: Table II screening results, crude combinatorial amide library.
[9] abbreviates: Table II screening results, crude combinatorial amide library, read-out: % inhibition @ 10 nM.

With `COc1cc(Nc2nc(N)c(-c3nc(-c4cccc(NC(=O)c5ccc(NC(C)=O)cc5)c4)cs3)s2)cc(OC)c1OC`, under setting [1], the inhibition at 0.15 µM came out at 16%.

As to `COc1cc(Nc2nc(N)c(-c3nc(-c4cc(NC(=O)/C=C(\C)c5ccccc5C)ccc4C)no3)s2)cc(OC)c1OC`, the inhibition at 0.001 µM under setting [2] is -27%. Further, the inhibition at 0.01 µM under setting [3] worked out at 8%.

As for `COc1cccc(C(=O)Nc2cc(-c3csc(-c4sc(NC(=O)NCC5CCC=CO5)nc4N)n3)c(F)cc2F)c1` (stereo not shown), under setting [4], the inhibition at 0.05 µM came out at 42%. Regarding `COc1cc(Nc2nc(N)c(-c3nc(-c4cc(NC(=O)c5cc(=O)[nH]c(=O)[nH]5)ccc4C)no3)s2)cc(OC)c1OC`, under setting [2], the inhibition at 0.001 µM was -4%. Besides, the inhibition at 0.01 µM under setting [3] was determined as 4%. As to `COc1cccc(C(=O)Nc2cc(-c3noc(-c4sc(NC(=O)NCS(=O)(=O)O)nc4N)n3)c(F)cc2F)c1`, under setting [5], the inhibition at 0.05 µM came to 30%.

Take `COc1cc(Nc2nc(N)c(-c3nc(-c4cccc(NC(=O)C5CCCCC5)c4)cs3)s2)cc(OC)c1OC`: the inhibition at 0.15 µM under setting [1] was -24%. For the compound `COc1cc(Nc2nc(N)c(-c3nc(-c4cc(NC(=O)C5C(C)(C)C5(C)C)ccc4C)no3)s2)cc(OC)c1OC`, under setting [2], the inhibition at 0.001 µM was -31%. Under setting [3], the inhibition at 0.01 µM amounted to 32%. As to `COc1cccc(C(=O)Nc2cc(-c3csc(-c4sc(NC(=O)NC(C)CN(C)C)nc4N)n3)c(F)cc2F)c1` (stereo not shown), under setting [4], the inhibition at 0.05 µM came out at 64%. Take `COc1cccc(C(=O)Nc2cccc(-c3csc(-c4sc(NC(=O)NC(CO)CO)nc4N)n3)c2)c1`: the inhibition at 0.01 µM under setting [6] was -17%. Besides, the inhibition at 0.05 µM under setting [7] was found to be 52%.

With `COc1cc(Nc2nc(N)c(-c3nc(-c4cccc(NC(=O)c5cc6cc(Cl)ccc6[nH]5)c4)cs3)s2)cc(OC)c1OC`, the inhibition at 0.15 µM under setting [1] is 0%. Regarding `COc1cc(Nc2nc(N)c(-c3nc(-c4cc(NC(=O)C(O)CC(C)C)ccc4C)no3)s2)cc(OC)c1OC` (stereo not shown), the inhibition at 0.001 µM under setting [2] was 5%. In addition, under setting [3], the inhibition at 0.01 µM stood at 69%. As to `COc1cc(Nc2nc(N)c(-c3nc(-c4cccc(NC(=O)c5ccc6c(c5)C(=O)N(C)C6=O)c4)cs3)s2)cc(OC)c1OC`, the inhibition at 0.15 µM under setting [1] was -3%. Take `COc1cc(Nc2nc(N)c(-c3nc(-c4cc(NC(=O)[C@H]5C[C@@H](C)[C@@H](C)[C@H]5C)ccc4C)no3)s2)cc(OC)c1OC`: under setting [2], the inhibition at 0.001 µM was -21%. Also, the inhibition at 0.01 µM under setting [3] was found to be 5%. Consider `C=CCCC(=O)Nc1cccc(-c2csc(-c3sc(Nc4cc(OC)c(OC)c(OC)c4)nc3N)n2)c1`, for which, under setting [1], the inhibition at 0.15 µM stood at 5%. For the compound `CCCCN(CC)CCNC(=O)Nc1nc(N)c(-c2nc(-c3cc(NC(=O)c4cccc(OC)c4)c(F)cc3F)cs2)s1`, the inhibition at 0.05 µM under setting [4] came out at 24%. With `COc1cc(Nc2nc(N)c(-c3nc(-c4cccc(NC(=O)/C=C/c5ccc6c(c5)OCO6)c4)cs3)s2)cc(OC)c1OC`, the “% inhibition @ 150 nM” value under setting [1] was 0%. As to `COc1cccc(C(=O)Nc2cc(-c3noc(-c4sc(NC(=O)NCC(=O)NO)nc4N)n3)c(F)cc2F)c1`, the inhibition at 0.05 µM under setting [5] is -12%. For `COc1cccc(C(=O)Nc2cc(-c3csc(-c4sc(NC(=O)N[C@H]5CC[C@H](O)CC5)nc4N)n3)c(F)cc2F)c1`, the inhibition at 0.05 µM under setting [4] was found to be 81%.

On to `COc1cc(Nc2nc(N)c(-c3nc(-c4cc(NC(=O)Cc5sc(S)nc5C)ccc4C)no3)s2)cc(OC)c1OC`, for which the inhibition at 0.001 µM under setting [2] is -17%. The inhibition at 0.01 µM under setting [3] amounted to 1%. For the compound `COc1cccc(C(=O)Nc2cc(-c3noc(-c4sc(NC(=O)NCCCN5CCCC5)nc4N)n3)c(F)cc2F)c1`, the inhibition at 0.05 µM under setting [5] is 75%.

For `CNC(=O)Nc1nc(N)c(-c2nc(-c3cccc(NC(=O)c4cccc(OC)c4)c3)cs2)s1` [drawing 606], the inhibition at 0.01 µM under setting [6] was 15%. For the same compound, under setting [7], the inhibition at 0.05 µM is 115%. As to `CNC(=O)Nc1nc(N)c(-c2nc(-c3cccc(NC(=O)c4cc(C)on4)c3)cs2)s1`, the inhibition at 0.001 µM under setting [8] was found to be 14%. Moreover, the inhibition at 0.01 µM under setting [9] amounted to 10%.

Regarding `CNC(=O)Nc1nc(N)c(-c2nc(-c3cccc(NC(=O)C4CCN(C(C)=O)CC4)c3)cs2)s1`, under setting [8], the inhibition at 0.001 µM turned out to be 23%. For the same compound, the inhibition at 0.01 µM under setting [9] was -15%. As to `COc1cccc(C(=O)Nc2cc(-c3csc(-c4sc(NC(=O)NCCNC(C)=O)nc4N)n3)c(F)cc2F)c1`, the inhibition at 0.05 µM under setting [4] came out at 105%. In the case of `COc1cccc(C(=O)Nc2cc(-c3csc(-c4sc(NC(=O)N[C@H](CO)Cc5c[nH]cn5)nc4N)n3)c(F)cc2F)c1`, the inhibition at 0.05 µM under setting [4] stood at 47%. For `COc1cccc(C(=O)Nc2cc(-c3noc(-c4sc(NC(=O)NCC(=O)O)nc4N)n3)c(F)cc2F)c1`, the inhibition at 0.05 µM under setting [5] came out at 73%.

Consider `COc1cccc(C(=O)Nc2cc(-c3noc(-c4sc(NC(=O)NCCc5c[nH]cn5)nc4N)n3)c(F)cc2F)c1`, for which the inhibition at 0.05 µM under setting [5] is 72%.

For `CNC(=O)Nc1nc(N)c(-c2nc(-c3cccc(NC(=O)C4CC5C=CCC(C5)C4)c3)cs2)s1` (stereo not shown), the inhibition at 0.001 µM under setting [8] was found to be 1%. Besides, the inhibition at 0.01 µM under setting [9] was determined as 55%. `COc1ccc2oc(C(=O)Nc3cccc(-c4csc(-c5sc(Nc6cc(OC)c(OC)c(OC)c6)nc5N)n4)c3)cc2c1`: under setting [1], the inhibition at 0.15 µM came out at 7%. As to `COc1cccc(C(=O)Nc2cccc(-c3csc(-c4sc(NC(=O)NCCC(=O)O)nc4N)n3)c2)c1`, the inhibition at 0.01 µM under setting [6] is -1%. Further, the inhibition at 0.05 µM under setting [7] is 8%.

Regarding `COc1cccc(C(=O)Nc2cc(-c3csc(-c4sc(NC(=O)NCc5ccccc5)nc4N)n3)c(F)cc2F)c1` [drawing 678], under setting [4], the inhibition at 0.05 µM is 93%. As for `CCN1CCCC1CNC(=O)Nc1nc(N)c(-c2nc(-c3cccc(NC(=O)c4cccc(OC)c4)c3)cs2)s1` (stereo not shown), the inhibition at 0.01 µM under setting [6] is -29%. Besides, the inhibition at 0.05 µM under setting [7] turned out to be 108%. In the case of `CNC(=O)Nc1nc(N)c(-c2nc(-c3cccc(NC(=O)c4cc(C)n(O)n4)c3)cs2)s1`, the inhibition at 0.001 µM under setting [8] is -2%. For the same compound, the inhibition at 0.01 µM under setting [9] is 13%. As for `COc1cccc(C(=O)Nc2cc(-c3csc(-c4sc(NC(=O)NCS(=O)(=O)O)nc4N)n3)c(F)cc2F)c1`, the inhibition at 0.05 µM under setting [4] came to 0%. As for `CNC(=O)Nc1nc(N)c(-c2nc(-c3cccc(NC(=O)C4CNC(=O)N4)c3)cs2)s1` (stereo not shown), the inhibition at 0.001 µM under setting [8] stood at 11%. The inhibition at 0.01 µM under setting [9] was found to be 18%. Consider `COc1cccc(C(=O)Nc2cc(-c3csc(-c4sc(NC(=O)NCCCn5ccnc5)nc4N)n3)c(F)cc2F)c1`, for which, under setting [4], the inhibition at 0.05 µM was 6%.

As for `COc1cc(Nc2nc(N)c(-c3nc(-c4cccc(NC(=O)c5cc6c(cc5C)C(C)(C)C(C)CC6(C)C)c4)cs3)s2)cc(OC)c1OC` (stereo not shown), the inhibition at 0.15 µM under setting [1] is 7%.

`COc1cc(Nc2nc(N)c(-c3nc(-c4cccc(NC(=O)Cc5ccc(F)cc5)c4)cs3)s2)cc(OC)c1OC`: under setting [1], the inhibition at 0.15 µM is -7%. Take `COc1cc(Nc2nc(N)c(-c3nc(-c4cc(NC(=O)[C@@]56C[C@@H]7C[C@@H]5CC7(C)C6)ccc4C)no3)s2)cc(OC)c1OC`: the inhibition at 0.001 µM under setting [2] stood at 1%. Under setting [3], the inhibition at 0.01 µM stood at 23%. Turning to `CCc1ccccc1C(=O)Nc1cccc(-c2csc(-c3sc(NC(=O)NC)nc3N)n2)c1`, under setting [8], the inhibition at 0.001 µM is 0%. Also, the inhibition at 0.01 µM under setting [9] was determined as 106%. For `COc1cccc(C(=O)Nc2cc(-c3noc(-c4sc(NC(=O)NCCOCCO)nc4N)n3)c(F)cc2F)c1` [drawing 787], under setting [5], the inhibition at 0.05 µM came out at 98%.

Turning to `COc1cc(Nc2nc(N)c(-c3nc(-c4cccc(NC(=O)/C=C/c5cccc(Cl)c5)c4)cs3)s2)cc(OC)c1OC`, under setting [1], the “% inhibition @ 150 nM” value amounted to 0%. `CNC(=O)Nc1nc(N)c(-c2nc(-c3cccc(NC(=O)C(C)C)c3)cs2)s1`: under setting [8], the inhibition at 0.001 µM worked out at 10%. Besides, the inhibition at 0.01 µM under setting [9] is -45%.
